Measurements: patent US12161115B2, “Herbicidal compounds” (SYNGENTA CROP PROTECTION AG, priority 2019, dated 2024)

How the values were obtained:
Assay type in all cases: in vivo
wheat crop plants = test: Crop phytotoxicity comparison, post-emergence
Method: (§1) Seeds of a variety of test species are sown in standard soil in pots (Lolium perenne (LOLPE), Setaria faberi (SETFA), Alopecurus myosuroides (ALOMY), Echinochloa crus-galli (ECHCG), Avena fatua (AVEFA)). After cultivation for one day (pre-emergence) or after 8 days cultivation (post-emergence) under controlled conditions in a glasshouse (at 24/16° C., day/night; 14 hours light; 65% humidity), the plants are sprayed with an aqueous spray solution derived from the formulation of the technical active ingredient in acetone/water (50:50) solution containing 0.5% Tween 20 (polyoxyethelyene sorbitan monolaurate, CAS RN 9005-64-5). Compounds are applied at 250 g/h. The test plants are then grown in a glasshouse under controlled conditions in a glasshouse (at 24/16° C., day/night; 14 hours light; 65% humidity) and watered twice daily. After 13 days for pre and post-emergence, the test is evaluated for the percentage damage caused to the plant. The biological activities are shown in the following table on a five point scale (5=80-100%; 4=60-79%; 3=40-59%; 2=20-39%; 1=0-19%). NT=not tested.
(§2) Using procedures outlines above, wheat and barley crop plants are treated, post-emergence with compounds A1, A3 or A8 of the present invention or comparator compound C1 (Compound A-38 from WO2014/096289) at the application rates indicated. The compounds were also applied in conjunction with the safener compound cloquintocet-mexyl (CQC) at 50 g/ha.

barley crop plants = test: Crop phytotoxicity comparison, post-emergence
Method: as §1, §2

[1] = tested on: Alopecurus myosuroides (ALOMY); test: Post-emergence herbicidal glasshouse test; details: 250 g/Ha, evaluated after 13 days
Method: as §1

Setaria faberi (SETFA) [2] = test: Post-emergence herbicidal glasshouse test; details: 250 g/Ha, evaluated after 13 days
Method: as §1

Lolium perenne (LOLPE) [3] = test: Post-emergence herbicidal glasshouse test; details: 250 g/Ha, evaluated after 13 days
Method: as §1

Avena fatua (AVEFA) [4] = test: Post-emergence herbicidal glasshouse test; details: 250 g/Ha, evaluated after 13 days
Method: as §1

[5] = tested on: Echinochloa crus-galli (ECHCG); test: Post-emergence herbicidal glasshouse test; details: 250 g/Ha, evaluated after 13 days
Method: as §1

[6] = tested on: Alopecurus myosuroides (ALOMY); test: Pre-emergence herbicidal glasshouse test; details: 250 g/Ha, evaluated after 13 days
Method: as §1

Setaria faberi (SETFA) [7] = test: Pre-emergence herbicidal glasshouse test; details: 250 g/Ha, evaluated after 13 days
Method: as §1

Lolium perenne (LOLPE) [8] = test: Pre-emergence herbicidal glasshouse test; details: 250 g/Ha, evaluated after 13 days
Method: as §1

Avena fatua (AVEFA) [9] = test: Pre-emergence herbicidal glasshouse test; details: 250 g/Ha, evaluated after 13 days
Method: as §1

[10] = tested on: Echinochloa crus-galli (ECHCG); test: Pre-emergence herbicidal glasshouse test; details: 250 g/Ha, evaluated after 13 days
Method: as §1

[11] = post-emergence, 60 g/ha + safener cloquintocet-mexyl (CQC) at 50 g/ha
[12] = post-emergence, summary of Table B3

Row | SMILES | % phytotoxicity observed, Wheat (wheat crop plants; post-emergence, 30 g/ha) | % phytotoxicity observed, Wheat (wheat crop plants; post-emergence, 60 g/ha) | % phytotoxicity observed, Wheat (wheat crop plants; [11]) | % phytotoxicity observed, Barley (barley crop plants; post-emergence, 30 g/ha) | % phytotoxicity observed, Barley (barley crop plants; post-emergence, 60 g/ha) | percentage damage caused to the plant, five point scale, ALOMY [1] | percentage damage caused to the plant, five point scale, SETFA (Setaria faberi (SETFA) [2]) | percentage damage caused to the plant, five point scale, LOLPE (Lolium perenne (LOLPE) [3]) | percentage damage caused to the plant, five point scale, AVEFA (Avena fatua (AVEFA) [4]) | percentage damage caused to the plant, five point scale, ECHCG [5] | damage to wheat crop compared to prior art compound C1 (wheat crop plants; [12]) | damage to barley crop compared to prior art compound C1 (barley crop plants; [12]) | percentage damage caused to the plant, five point scale, ALOMY [6] | percentage damage caused to the plant, five point scale, SETFA (Setaria faberi (SETFA) [7]) | percentage damage caused to the plant, five point scale, LOLPE (Lolium perenne (LOLPE) [8]) | percentage damage caused to the plant, five point scale, AVEFA (Avena fatua (AVEFA) [9]) | percentage damage caused to the plant, five point scale, ECHCG [10] | damage to wheat crop compared to prior art compound C1 (wheat crop plants; in vivo) | damage to barley crop compared to prior art compound C1 (barley crop plants; in vivo)
1 | CC#Cc1cc(C)c(C2C(=O)CC3(CCOCC3)CC2=O)c(C)c1 [Compound C1, reference compound] | 40% | 70% | 60% | 80% | 90% |  |  |  |  |  |  |  |  |  |  |  |  |  | 
2 | CC#Cc1cc(C)c(C2C(=O)CC3(CCN(C(=O)C(C)=NN(C)C)CC3)CC2=O)c(C)c1 [Compound A8, 3-[2-(dimethylhydrazono)propanoyl]-9-(2,6-dimethyl-4-prop-1-ynyl-phenyl)-3-azaspiro[5.5]undecane-8,10-dione] | 0% | 10% | 10% | 0% | 0% | 5 (5=80-100%) | 5 (5=80-100%) | 5 (5=80-100%) | 5 (5=80-100%) | 5 (5=80-100%) | significantly less damaging | significantly less damaging | 5 (5=80-100%) | 5 (5=80-100%) | 5 (5=80-100%) | 5 (5=80-100%) | 5 (5=80-100%) |  | 
3 | CC#Cc1cc(C)c(C2C(=O)CC3(CCN(C(=O)C(C)=NOCC#N)CC3)CC2=O)c(C)c1 [Compound A10] |  |  |  |  |  | 5 (5=80-100%) | 5 (5=80-100%) | 5 (5=80-100%) | 5 (5=80-100%) | 5 (5=80-100%) |  |  | 4 (4=60-79%) | 4 (4=60-79%) | 1 (1=0-19%) | 1 (1=0-19%) | 4 (4=60-79%) |  | 
4 | CC#Cc1cc(C)c(C2C(=O)CC3(CCN(C(=O)/C=N/OC)CC3)CC2=O)c(C)c1 [Compound A3, 9-(2,6-dimethyl-4-prop-1-ynyl-phenyl)-3-[(2E)-2-methoxyiminoacetyl]-3-azaspiro[5.5]undecane-8,10-dione] |  |  |  |  |  | 5 (5=80-100%) | 5 (5=80-100%) | 5 (5=80-100%) | 5 (5=80-100%) | 5 (5=80-100%) |  |  | 4 (4=60-79%) | 5 (5=80-100%) | 5 (5=80-100%) | 5 (5=80-100%) | 5 (5=80-100%) | significantly less damaging | significantly less damaging
5 | CC#Cc1cc(C)c(C2C(=O)CC3(CCN(C(=O)C(C)=NOCC)CC3)CC2=O)c(C)c1 [Compound A2] |  |  |  |  |  | 5 (5=80-100%) | 5 (5=80-100%) | 5 (5=80-100%) | 5 (5=80-100%) | 5 (5=80-100%) |  |  | 5 (5=80-100%) | 5 (5=80-100%) | 5 (5=80-100%) | 5 (5=80-100%) | 5 (5=80-100%) |  | 
6 | CC#Cc1cc(C)c(C2C(=O)CC3(CCN(C(=O)/C(C)=N\O)CC3)CC2=O)c(C)c1 [Compound A5] |  |  |  |  |  | 5 (5=80-100%) | 5 (5=80-100%) | 5 (5=80-100%) | 5 (5=80-100%) | 5 (5=80-100%) |  |  | 4 (4=60-79%) | 5 (5=80-100%) | 5 (5=80-100%) | 5 (5=80-100%) | 5 (5=80-100%) |  | 
7 | CC#Cc1cc(C)c(C2C(=O)CC3(CCN(C(=O)/C(C)=N/Oc4ccccn4)CC3)CC2=O)c(C)c1 [Compound A6, 9-(2,6-dimethyl-4-prop-1-ynyl-phenyl)-3-[(2E)-2-(2-pyridyloxyimino)propanoyl]-3-azaspiro[5.5]undecane-8,10-dione] |  |  |  |  |  | 5 (5=80-100%) | 5 (5=80-100%) | 5 (5=80-100%) | 5 (5=80-100%) | 5 (5=80-100%) |  |  | 5 (5=80-100%) | 5 (5=80-100%) | 5 (5=80-100%) | 5 (5=80-100%) | 5 (5=80-100%) |  | 
8 | CC#Cc1cc(C)c(C2C(=O)CC3(CCN(C(=O)/C(C)=N/OC4CCOCC4)CC3)CC2=O)c(C)c1 [Compound A9] |  |  |  |  |  | 5 (5=80-100%) | 5 (5=80-100%) | 4 (4=60-79%) | 5 (5=80-100%) | 5 (5=80-100%) |  |  | 5 (5=80-100%) | 4 (4=60-79%) | 3 (3=40-59%) | 2 (2=20-39%) | 3 (3=40-59%) |  | 
9 | CC#Cc1cc(C)c(C2C(=O)CC3(CCN(C(=O)C(C)=NOCCOC)CC3)CC2=O)c(C)c1 [Compound A11] |  |  |  |  |  | 5 (5=80-100%) | 5 (5=80-100%) | 5 (5=80-100%) | 5 (5=80-100%) | 5 (5=80-100%) |  |  | 5 (5=80-100%) | 5 (5=80-100%) | 5 (5=80-100%) | 3 (3=40-59%) | 5 (5=80-100%) |  | 
10 | CC#Cc1cc(C)c(C2C(=O)CC3(CCN(C(=O)/C(C)=N/O)CC3)CC2=O)c(C)c1 [Compound A4] |  |  |  |  |  | 5 (5=80-100%) | 5 (5=80-100%) | 5 (5=80-100%) | 5 (5=80-100%) | 5 (5=80-100%) |  |  | 5 (5=80-100%) | 5 (5=80-100%) | 5 (5=80-100%) | 5 (5=80-100%) | 5 (5=80-100%) |  | 
11 | CC#Cc1cc(C)c(C2C(=O)CC3(CCN(C(=O)/C(=N\OC)C(C)(C)C)CC3)CC2=O)c(C)c1 [Compound A7] |  |  |  |  |  | 4 (4=60-79%) | 5 (5=80-100%) | 5 (5=80-100%) | 3 (3=40-59%) | 5 (5=80-100%) |  |  | 4 (4=60-79%) | 5 (5=80-100%) | 5 (5=80-100%) | 2 (2=20-39%) | 5 (5=80-100%) |  | 
